Results reported in patent publication US20240374613A1, “BIOACTIVE MOLECULES FOR USE IN TREATING INSULIN RESISTANCE AND/OR RESTORING GLUCOSE HOMEOSTASIS” (PALTECH, priority 2021, published 2024).

How the values were obtained:
GLP-1r = details: DHT infusion 10 mg daily, one month after surgery
Procedure: (§1) The method was evaluated on 15 miniature pigs aged 5 years old (INRAE, UEPR, Saint-Gilles, France) and rendered insulin resistant after 3-4 months high fat high sucrose dict ingestion in excess according to already published data (Malbert et al., 2017b). The diet supplied 4024 kcal per kg of feed and was presented twice daily so that the animals could eat up to 150% of the recommended caloric intake (288 kcal/kg BW^0.75).
Once obese and insulin resistant, the animals were distributed into three groups of equal size (n=5 animals). One group served as control and was submitted only to a dummy implantation procedure including the initial GLP-1r PET imaging sequence using [68Ga]Ga-DO3A-VS-Cys40-Exendin-4. The second group was implanted during a laparoscopic procedure with a silicon catheter (2 mm OD) with its tip located at the portal sensor close to the minimum GLP-1r expression area according to the procedure described in 3.3. The terminal part of the catheter was bend at 90° to enter the periportal area. The catheter was secured at the entrance of the periportal cavity using a dacron surgical mesh (Biomesh P1, Cousin Bioserv Paris) glued to the silicon rubber prior to the implantation. During the implantation, the surgical mesh was glued to the outer layer of the portal vein using a surgical glue dispenser Glubran 2 and Glutack Cousin Bioserv Paris). […]

[1] = DHT infusion 10 mg/24 H, mean ± SD, N=5
Procedure: as §1
(§2) Once obese and insulin resistant, the animals were distributed into three groups of equal size (n=5 animals). One group served as control and was submitted only to a dummy implantation procedure including the initial GLP-1r PET imaging sequence using [68Ga]Ga-DO3A-VS-Cys40-Exendin-4. The second group was implanted during a laparoscopic procedure with a silicon catheter (2 mm OD) with its tip located at the portal sensor close to the minimum GLP-1r expression area according to the procedure described in 3.3. The terminal part of the catheter was bend at 90° to enter the periportal area. The catheter was secured at the entrance of the periportal cavity using a dacron surgical mesh (Biomesh P1, Cousin Bioserv Paris) glued to the silicon rubber prior to the implantation. During the implantation, the surgical mesh was glued to the outer layer of the portal vein using a surgical glue dispenser Glubran 2 and Glutack Cousin Bioserv Paris). The opposite tip of the catheter exited between the shoulder of the animal and was connected to an elastomeric pump. The pump (Easypump, II, BBraun) delivered 2 mL per hour of a solution of dihydrotestosterone (Sigma, Paris) in sterile water/DMSO (100:5 V/V) so that 10 mg of dihydrotestosterone was infused daily. The amount of the active molecule was irrespective of the body weight (BW). The pump was located in a lateral pocket of a jacket Whose size was adjusted for obese Yucantan minipigs (Lomir, Canada) and wore by the animal for the duration of the experiment. The third group was implanted during a laparoscopic procedure with an implant delivering 100 μg of dihydrostestoterone daily (Belma Technologies, Belgium) irrespective of the weight of the animal. The implant was inserted in the periportal area and the insertion hole achieved on the mesenteric layer for insertion was closed by a patch of surgical mesh glued directly on the meso using a procedure similar that described above. The anesthesia and surgical approach used for laparoscopy were identical those already described by Malbert et al. (Malbert et al., 2017b).
The protocol was described in FIG. 5 and consisted of two periods; one during which an obese insulin resistant status is achieved followed by a one-month post-surgery period during which DHT was slowly release according to the method of delivery described above. […]

[2] = Procedure: as §1, §2
The protocol was described in FIG. 5 and consisted of two periods; one during which an obese insulin resistant status is achieved followed by a one-month post-surgery period during which DHT was slowly release according to the method of delivery described above. For control and implant groups only, the experimental period was also extended for an additional month to evaluate the capacity of the method to achieve a sustained effect on glucose metabolism. This extended period was not achievable on catheter implanted animals due to ethical constraints. A one-week recovery period is inserted in the protocol after the initial PET GLP-1r scan and after the surgery. The data acquired during these periods were discarded from further analysis.
Distribution of GLP-1r along the portal vein and within the abdominal organs was obtained during an initial PET scan after the administration of 25 to 40 MBq [68Ga]Ga-DO3A-VS-Cys40-Exendin-4 according to the above section 3 of the examples. The portal area of low GLP-1r expression was identified and used for insertion of either the catheter tip or the DHT implant according to the above section 3.3 relating to laparoscopic access. The anesthesia and overall procedure for imaging is identical that described by Malbert et al (Malbert et al., 2020b). The same PET scan procedure was repeated one month after the surgical procedure allowing to compare between groups and within subjects of the same group the changes in GLP-1r distribution.

muscle protein synthesis = details: effect in muscle protein synthesis; in the form of gel applied cutaneous; cited from earlier work
[3] = periportal catheter, first 30 days after surgery
[4] = 30 days after the implantation surgery
[5] = DHT infusion 10 mg/24 H, periportal catheter, first 30 days after surgery, mean ± SD, N=5
[6] = DHT infusion 10 mg/24 H, 30 days after the implantation surgery, mean ± SD, N=5

Question: With `C[C@]12CCC(=O)C[C@@H]1CC[C@@H]1[C@@H]2CC[C@]2(C)[C@@H](O)CC[C@@H]12` [DHT infusion, dihydrotestosterone] as the compound, how does the “Portal GLP-1r binding potential/volume of distribution compared to control” value (GLP-1r) read?
Answer: The value was “more than doubled”.

Question: And the “Non portal (pancreatic) GLP-1r binding” value (GLP-1r; ns vs control)?
Answer: Its value is 4.8±0.41.

Question: What about the Body weight [1, 3] of the same compound?
Answer: Its Body weight is 80.8 ± 2.0 kg.

Question: And the Daily ingestion [1, 3]?
Answer: Its Daily ingestion is 8.6 ± 0.03 g/kg · day.

Question: And the Basal metabolic rate [1, 4]?
Answer: Its Basal metabolic rate is 0.0079 ± 0.0007 kcal/min/kg.

Question: What about the “Fasting glucose oxidation rate” value [1, 4] of the same compound?
Answer: Its value is 1.8 ± 0.10 mg/min · kg.

Question: What about the Abdominal fat [2, 5] of the same compound?
Answer: The Abdominal fat was 38.1 ± 0.7!^ % of BW.

Question: What about the Fat [2, 5] of the same compound?
Answer: The Fat was 36.8 ± 0.5 % of BW.

Question: What about the “Liver to spleen ratio” value [2, 5] of the same compound?
Answer: The value was 1.1 ± 0.02.

Question: And the Mean arterial pressure [2, 5]?
Answer: The Mean arterial pressure was 79 ± 3.1 mmHg.

Question: What about the Muscle [2, 5] of the same compound?
Answer: The Muscle was 6.5 ± 1.0 % of BW.

Question: And the Pulse rate [2, 5]?
Answer: The Pulse rate was 104 ± 8.7 min⁻¹.

Question: And the Systolic blood pressure [2, 5]?
Answer: Its Systolic blood pressure is 55 ± 2.1 mmHg.

Question: And the Clamp plasma insulin [2, 6]?
Answer: Its Clamp plasma insulin is 501 ± 14.1 μU/mL.

Question: What about the Fasting plasma glucose [2, 6] of the same compound?
Answer: Its Fasting plasma glucose is 4.2 ± 0.23 mmol/L.

Question: What about the Fasting plasma insulin [2, 6] of the same compound?
Answer: Its Fasting plasma insulin is 2.1 ± 0.21 μU/mL.

Question: What about the “Mean plasma glucose at clamp plateau” value [2, 6] of the same compound?
Answer: Its value is 4.2 ± 0.36 mmol/L.

Question: And the Insulin sensitivity ([2]; DHT infusion 10 mg/24 H, euglycemic hyperinsulinemic clamp plateau, 30 days after the implantation surgery, mean ± SD, N=5)?
Answer: Its Insulin sensitivity is 6.8 ± 0.20 dL/kg · min/μMU/mL*1E−3.

Question: For `C[C@]12CCC(=O)C[C@@H]1CC[C@@H]1[C@@H]2CC[C@]2(C)[C@@H](O)CC[C@@H]12` [DHT, dihydrotestosterone], which ED50 (muscle protein synthesis) is on record?
Answer: The ED50 was 20 mg daily.

Question: What about the “Circulating insulin as fraction of the insulinemia measured in control group” value ([2]; DHT treated animals (both groups), fasting, 30 days after surgery) of the same compound?
Answer: Its value is 1/3.

Question: And the “Whole-body insulin sensitivity change compared to control” value ([2]; euglycemic hyperinsulinemic clamp, irrespective of the DHT group)?
Answer: Its value is “one third increase”.
